From EP0082023A2, “Thienopyrimidine derivatives, their preparation and their medical use” (SANKYO COMPANY LIMITED, priority 1981, dated 1983)

Columns and labels:
[1] = tested on: male mice of the ddY strain; experiment: Diuretic activity in mice (urine volume and sodium ion concentration); type: in vivo; details: urine collected for 2 hours after administration, increase over control group
Experimental: The animals employed in this test were male mice of the ddY strain, each having a body weight of from 26 g to 30 g. The mice were employed in groups of five for each test. Each test compound was suspended in a 0.3% carboxymethylcellulose saline solution and administered orally in the dose shown in Table 3 to the mouse. For the period of 2 hours after administration, the urine was collected and the urine volume and concentration of sodium ions were measured. […] The compounds tested were Compound No. 3 of the present invention and hydrochlorothiazide (abbreviated as "HCT").

[2] = tested on: male mice of the ddY strain; experiment: Hypoglycaemic activity in mice after glucose loading; type: in vivo; details: Mus musculus, po, 0.5 h; blood sugar concentration vs positive control group; 10 mg/kg orally, 1.2 g/kg D-glucose orally 10 minutes later, blood collected 30 minutes after D-glucose; groups of 6 mice; read-out: Inhibitory rate, R%
Experimental: In this experiment, the hypoglycaemic activity of various of the compounds of the invention was measured in mice after loading a large quantity of glucose. The test animals were male mice of the ddY strain having a body weight of from 25 to 27 g. Each experiment was carried out on a group of 6 mice.
Each test compound was administered orally in an amount of 10 mg/kg to the mouse followed, 10 minutes later, by the oral administration of 1.2 g/kg of D-glucose. 30 minutes after administration of the D-glucose, blood was collected from each mouse and the blood sugar.concentration was measured using a commercially available kit ("New Blood Sugar Test", a product of Boehringer-Mannheim Yamanouchi Pharmaceutical Co. Ltd,). The inhibitory rate, R, was calculated from the following formula: [formula] in which A represents the blood sugar concentration of a positive control group and B represents the blood sugar concentration of the group to which the test compound was administered. As a control, the experiment was also carried out with: the known hypoglycaemic agent, tolbutamide; 2-(2-aminoethylamino)-4-morpholinothieno[2,3-d]pyrimidine (named "VK-744"), a compound disclosed in German Offenlegungsschrift No. 2,200,764; and 4-isopropylamino-2-piperidinothieno[2,3-d]-pyrimidine (hereinafter referred to as "ICI-154"), a compound disclosed in U.S. Patent Specification No. 4,146,716.

[3] = tested on: platelet aggregation; experiment: Inhibition of collagen-induced platelet aggregation in platelet-rich plasma; type: cell-based; details: rabbit PRP, incubated 2 minutes, collagen 5 ug/ml
Experimental: The ability of various compounds of the present invention to inhibit platelet aggregation was measured using rabbit blood.
9 volumes of blood collected from male rabbit hearts and 1 volume of a 3.8% w/v aqueous solution of sodium citrate were mixed, placed in a centrifugal separator and subjected to centrifugation under 150 G for 15 minutes to give a platelet-rich-plasma (PRP). 250 pl of this PRP were placed in a cuvette and incubated for 2 minutes with a test compound at the concentration shown in Table 2. To the mixture was then added a collagen solution to a final concentration of 5 ug/ml, to induce aggregation. The aggregation was measured using an aggregometer produced by Rikadenki Co. Ltd. The inhibitory rate R' was calculated from the following formula: [formula] in which A' represents the maximum aggregation rate when only a solvent was added and B' represents the maximum aggregation rate when the test compound was added.
For comparison, the experiment was also carried out using as the test compound VK-744, of German Offenlegungsschrift No. 2,200,764, and ICI-154 of U.S. Patent Specification No. 4,146,716.

Structure (SMILES)	inhibition in vivo at 10 mg/kg [2] [%]	other results
Cc1csc2nc(N3CCNCC3)nc(N)c12 [Compound No. 3, 4-Amino-5-methyl-2-(1-piperazinyl)thieno[2,3-d]-pyrimidine]	32.4	Percent increase in Na^+ conc. ([1]; dose 100 mg/kg orally): +51%; Percent increase in Urine volume ([1]; dose 100 mg/kg orally): +76%; Inhibitory rate, R'% ([3]; concentration 10^-5 g/ml): 82.4%
CCc1cc2c(N)nc(N3CCNCC3)nc2s1 [Compound No. 8, 4-Amino-6-ethyl-2-(1-piperazinyl)thieno[2,3-d]-pyrimidine]	34	–
CNc1nc(N2CCNCC2)nc2scc(C)c12 [Compound No. 16, 5-Methyl-4-methylamino-2-(1-piperazinyl)thieno[2,3-d]-pyrimidine]	43.9	–
CCc1cc2c(NC)nc(N3CCNCC3)nc2s1 [Compound No. 21, 6-Ethyl-4-methylamino-2-(1-piperazinyl)thieno[2,3-d]-pyrimidine]	20	–
CCc1cc2c(N(CC)CC)nc(N3CCNCC3)nc2s1 [Compound No. 39, 4-Diethylamino-6-ethyl-2-(1-piperazinyl)thieno[2,3-d]-pyrimidine]	19.4	–
CCc1cc2c(NCCO)nc(N3CCNCC3)nc2s1 [Compound No. 54, 6-Ethyl-4-(2-hydroxyethylamino)-2-(1-piperazinyl)-thieno[2,3-d]pyrimidine]	–	Inhibitory rate, R'% ([3]; concentration 10^-6 g/ml): 66.1%
CCc1cc2c(NCCN)nc(N3CCNCC3)nc2s1 [Compound No. 66, 4-(2-Aminoethylamino)-6-ethyl-2-(1-piperazinyl)-thieno[2,3-d]pyrimidine]	32.9	Inhibitory rate, R'% ([3]; concentration 3 x 10^-5 g/ml): 100%
CCc1cc2c(N)nc(N3CCN(C)CC3)nc2s1 [Compound No. 73, 4-Amino-6-ethyl-2-(4-methyl-1-piperazinyl)thieno-[2,3-d]pyrimidine]	34.1	Inhibitory rate, R'% ([3]; concentration 3 x 10^-5 g/ml): 100%
CCc1cc2c(N)nc(N3CCN(C=O)CC3)nc2s1 [Compound No. 84, 4-Amino-6-ethyl-2-(4-formyl-1-piperazinyl)thieno-[2,3-d]pyrimidine]	39.3	–
CCc1cc2c(NC)nc(N3CCN(C=O)CC3)nc2s1 [Compound No. 99, 6-Ethyl-2-(4-formyl-1-piperazinyl)-4-methylaminothieno-[2,3-d]pyrimidine]	22.1	–
OCCN(CCO)c1nc(N2CCNCC2)nc2sc3c(c12)CCCC3 [Compound No. 197, 4-Bis(2-hydroxyethyl)amino-2-(1-piperazinyl)-5,6-tetramethylenethieno[2,3-d]pyrimidine]	–	Inhibitory rate, R'% ([3]; concentration 10^-5 g/ml): 87%
NS(=O)(=O)c1cc2c(cc1Cl)NCNS2(=O)=O [HCT, hydrochlorothiazide, reference compound]	–	Percent increase in Na^+ conc. ([1]; dose 30 mg/kg orally): +93%; Percent increase in Urine volume ([1]; dose 30 mg/kg orally): +43%
CC(C)Nc1nc(N2CCCCC2)nc2sccc12 [ICI-154, 4-isopropylamino-2-piperidinothieno[2,3-d]-pyrimidine, reference compound]	11	Inhibitory rate, R'% ([3]; concentration 10^-4 g/ml): < 50%
NCCNc1nc(N2CCOCC2)c2ccsc2n1 [VK-744, 2-(2-aminoethylamino)-4-morpholinothieno[2,3-d]pyrimidine, reference compound]	19	–
CNc1nc(N2CCNCC2)nc2sccc12 [compound 49, 4-Methylamino-2-(1-piperazinyl)thieno[2,3-d]pyrimidine]	32	–
CCc1cc2c(N(CCO)CCO)nc(N3CCNCC3)nc2s1 [compound 62, 4-Bis(2-hydroxyethyl)amino-6-ethyl-2-(1-piperazinyl)-thieno[2,3-d]pyrimidine]	–	Inhibitory rate, R'% ([3]; concentration 10^-6 g/ml): 65.3%
CCCCNC(=O)NS(=O)(=O)c1ccc(C)cc1 [tolbutamide, reference compound]	2.8	–
